From patent US5677419A, “Cyclic vasoactive peptide analogs” (Hoffmann-La Roche Inc., priority 1994, dated 1997)
Where a SMILES comes first, the peptide text is derived from it. Bridges are numbered along the chain shown (N, C = ends). [ ]: non-standard residue; d: D form. Tyr(3-OMe) = COc1cc(C[C@H](N)C(=O)O)ccc1O; Phe(4-F) = N[C@@H](Cc1ccc(F)cc1)C(=O)O; 2Nal = N[C@@H](Cc1ccc2ccccc2c1)C(=O)O; Nle = CCCC[C@H](N)C(=O)O

Experiments:
[1] = test system: guinea pig tracheal smooth muscle; experiment: Tracheal relaxant activity of VIP analogs on isolated guinea pig tracheal rings; type: cell-based; conditions: cumulative concentration response, relaxation as % of maximum response to VIP (10^-6 M=100%), three tissues pooled, linear regression
How it was run: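 Male guinea pig tracheal rings under 1.5 g resting tension in Krebs at 37° C, 95% O2/5% CO2, isometric tension. Cumulative concentration-response curves; relaxation as % of response to 10^-6 M VIP added at end; three tissues pooled, EC50 by linear regression.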

[2] = test system: guinea pigs; experiment: In vivo bronchodilator activity by tracheal instillation against histamine challenge; set-up: species or system guinea pig; conditions: anesthetized male guinea pigs, inhibition of histamine (i.v.)-induced rise in tracheal pressure
How it was run: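 Urethane-anaesthetised male Hartley guinea pigs (400-600 g) received compound in water by intratracheal instillation, then were paralysed, ventilated and challenged with histamine […] i.v. Tracheal pressure change gave % inhibition (≥3 animals/group); ED50 from log dose-response; duration as time until inhibition fell to 40%.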

Row | EC50 [1] | Structure (SMILES) | Bronchodilator activity of VIP analogs in guinea pigs, ED50 [2]
1 | 1.3 nM | CCCC[C@H](NC(=O)[C@H](CCC(N)=O)NC(=O)[C@H](CCCCN)NC(=O)[C@H](CCCNC(=N)N)NC(=O)[C@H](CC(C)C)NC(=O)[C@H](CCCCN)NC(=O)[C@@H](NC(=O)[C@H](Cc1ccc2ccccc2c1)NC(=O)[C@H](CC(N)=O)NC(=O)[C@H](CC(=O)O)NC(=O)[C@@H](NC(=O)[C@H](Cc1ccc(F)cc1)NC(=O)[C@@H](NC(=O)[C@H](C)NC(=O)[C@H](CC(=O)O)NC(=O)[C@H](CO)NC(=O)[C@H](Cc1c[nH]cn1)NC(C)=O)C(C)C)[C@@H](C)O)[C@@H](C)O)C(=O)N[C@@H](C)C(=O)N[C@H](C(=O)N[C@@H](CCCCN)C(=O)N[C@H]1CCCCNC(=O)C[C@@H](C(=O)N[C@H](C(=O)N[C@@H](CC(C)C)C(=O)N[C@H](C(=O)NCC(=O)NCC(=O)N[C@@H](CCSC)C(N)=O)[C@@H](C)O)C(C)C)NC(=O)[C@H](CC(N)=O)NC(=O)[C@H](CC(C)C)NC(=O)[C@H](Cc2ccc(O)cc2)NC1=O)C(C)C [SEQ ID NO:30, Ac-[p-F-Phe^6,2-Nal^10,Lys^12,Nle^17,Asp^25,Val^26,Thr^28,Gly^29,30,Met^31]-VIP (1-31)-NH2 cyclo (Lys^21 →Asp^25)] (Ac-HSDAV[Phe(4-F)]TDN[2Nal]TKLRKQ[Nle]AVKKYLNDVLTGGM-NH2; lactam 21-25) | 0.90 μg
2 | 0.26 nM | CC(=O)N[C@@H](Cc1c[nH]cn1)C(=O)N[C@@H](CO)C(=O)N[C@@H](CC(=O)O)C(=O)N[C@@H](C)C(=O)N[C@H](C(=O)N[C@@H](Cc1ccccc1)C(=O)N[C@H](C(=O)N[C@@H](CCC(=O)O)C(=O)N[C@@H](CC(N)=O)C(=O)N[C@@H](Cc1ccc(O)cc1)C(=O)N[C@H](C(=O)N[C@@H](CCCCN)C(=O)N[C@@H](CC(C)C)C(=O)N[C@@H](CCCNC(=N)N)C(=O)N[C@@H](CCCCN)C(=O)N[C@@H](C)C(=O)N[C@@H](C)C(=O)N[C@@H](C)C(=O)N[C@@H](C)C(=O)N[C@@H](CCCCN)C(=O)N[C@H]1CCCCNC(=O)C[C@@H](C(=O)N[C@@H](CC(C)C)C(=O)N[C@@H](CCCCN)C(=O)N[C@@H](CCCCN)C(N)=O)NC(=O)[C@H](CC(N)=O)NC(=O)[C@H](CC(C)C)NC(=O)[C@H](Cc2ccc(O)cc2)NC1=O)[C@@H](C)O)[C@@H](C)O)C(C)C [SEQ ID NO:60, Ac-[Glu^8,Lys^12,Ala^16,17,19,Asp^25,Leu^26,Lys^27,28]-VIP cyclo (Lys^21 →Asp^25)] (Ac-HSDAVFTENYTKLRKAAAAKKYLNDLKK-NH2; lactam 21-25) | 0.17 μg
3 | 0.47 nM | CCCC[C@H](NC(=O)[C@H](CCC(N)=O)NC(=O)[C@H](CCCCN)NC(=O)[C@H](CCCNC(=N)N)NC(=O)[C@H](CC(C)C)NC(=O)[C@H](CCCCN)NC(=O)[C@@H](NC(=O)[C@H](Cc1ccc(O)cc1)NC(=O)[C@H](CC(N)=O)NC(=O)[C@H](CCC(=O)O)NC(=O)[C@@H](NC(=O)[C@H](Cc1ccc(F)cc1)NC(=O)[C@@H](NC(=O)[C@H](C)NC(=O)[C@H](CC(=O)O)NC(=O)[C@H](CO)NC(=O)[C@H](Cc1c[nH]cn1)NC(C)=O)C(C)C)[C@@H](C)O)[C@@H](C)O)C(=O)N[C@@H](C)C(=O)N[C@@H](C)C(=O)N[C@@H](CCCCN)C(=O)N[C@H]1CCCCNC(=O)C[C@@H](C(=O)N[C@@H](CC(C)C)C(=O)N[C@@H](CCCCN)C(=O)N[C@@H](CCCCN)C(N)=O)NC(=O)[C@H](CC(N)=O)NC(=O)[C@H](CC(C)C)NC(=O)[C@H](Cc2ccc(O)cc2)NC1=O [SEQ ID NO:45, Ac-[p-F-Phe^6,Glu^8,Lys^12,Nle^17,Ala^19,Asp^25,Leu^26,Lys^27,28]-VIP cyclo (Lys^21 →Asp^25)] (Ac-HSDAV[Phe(4-F)]TENYTKLRKQ[Nle]AAKKYLNDLKK-NH2; lactam 21-25) | 0.026 μg
4 | 0.41 nM | CCCC[C@H](NC(=O)[C@H](CCC(N)=O)NC(=O)[C@H](CCCCN)NC(=O)[C@H](CCCNC(=N)N)NC(=O)[C@H](CC(C)C)NC(=O)[C@H](CCCCN)NC(=O)[C@@H](NC(=O)[C@H](Cc1ccc(OC)cc1)NC(=O)[C@H](CC(N)=O)NC(=O)[C@H](CCC(=O)O)NC(=O)[C@@H](NC(=O)[C@H](Cc1ccccc1)NC(=O)[C@@H](NC(=O)[C@H](C)NC(=O)[C@H](CC(=O)O)NC(=O)[C@H](CO)NC(=O)[C@H](Cc1c[nH]cn1)NC(C)=O)C(C)C)[C@@H](C)O)[C@@H](C)O)C(=O)N[C@@H](C)C(=O)N[C@@H](C)C(=O)N[C@@H](CCCCN)C(=O)N[C@H]1CCCCNC(=O)C[C@@H](C(=O)N[C@@H](CC(C)C)C(=O)N[C@@H](CCCCN)C(=O)N[C@@H](CCCCN)C(N)=O)NC(=O)[C@H](CC(N)=O)NC(=O)[C@H](CC(C)C)NC(=O)[C@H](Cc2ccc(O)cc2)NC1=O [SEQ ID NO:48, Ac-[Glu^8,O-Me-Tyr^10,Lys^12,Nle^17,Ala^19,Asp^25,Leu^26, Lys^27,28]-VIP cyclo (Lys^21 →Asp^25)] (Ac-HSDAVFTENY(Me)TKLRKQ[Nle]AAKKYLNDLKK-NH2; lactam 21-25) | 0.094 μg
5 | 0.29 nM | CCCC[C@H](NC(=O)[C@H](CCC(N)=O)NC(=O)[C@H](CCCCN)NC(=O)[C@H](CCCNC(=N)N)NC(=O)[C@H](CC(C)C)NC(=O)[C@H](CCCCN)NC(=O)[C@@H](NC(=O)[C@H](Cc1ccc(O)cc1)NC(=O)[C@H](CC(N)=O)NC(=O)[C@H](CCC(=O)O)NC(=O)[C@@H](NC(=O)[C@H](Cc1ccccc1)NC(=O)[C@@H](NC(=O)[C@H](C)NC(=O)[C@H](CC(=O)O)NC(=O)[C@H](CO)NC(=O)[C@H](Cc1c[nH]cn1)NC(C)=O)C(C)C)[C@@H](C)O)[C@@H](C)O)C(=O)N[C@@H](C)C(=O)N[C@@H](C)C(=O)N[C@@H](CCCCN)C(=O)N[C@H]1CCCCNC(=O)C[C@@H](C(=O)N[C@@H](CC(C)C)C(=O)N[C@@H](CCCCN)C(=O)N[C@@H](CCCCN)C(N)=O)NC(=O)[C@H](CC(N)=O)NC(=O)[C@H](CC(C)C)NC(=O)[C@H](Cc2ccc(O)c(OC)c2)NC1=O [SEQ ID NO:57, Ac-[Glu^8,Lys^12,Nle^17,Ala^19,m-OCH3 -Tyr^22,Asp^25,Leu^26,Lys^27,28]-VIP cyclo (Lys^21 →Asp^25)] (Ac-HSDAVFTENYTKLRKQ[Nle]AAKK[Tyr(3-OMe)]LNDLKK-NH2; lactam 21-25) | 0.019 μg
6 | 0.1 nM | CC(=O)N[C@@H](Cc1c[nH]cn1)C(=O)N[C@@H](CO)C(=O)N[C@@H](CC(=O)O)C(=O)N[C@@H](C)C(=O)N[C@H](C(=O)N[C@@H](Cc1ccccc1)C(=O)N[C@H](C(=O)N[C@@H](C)C(=O)N[C@@H](CC(N)=O)C(=O)N[C@@H](Cc1ccc(O)cc1)C(=O)N[C@H](C(=O)N[C@@H](CCCCN)C(=O)N[C@@H](CC(C)C)C(=O)N[C@@H](CCCNC(=N)N)C(=O)N[C@@H](CCCCN)C(=O)N[C@@H](C)C(=O)N[C@@H](C)C(=O)N[C@@H](C)C(=O)N[C@@H](C)C(=O)N[C@@H](CCCCN)C(=O)N[C@H]1CCCCNC(=O)C[C@@H](C(=O)N[C@@H](CC(C)C)C(=O)N[C@@H](CCCCN)C(=O)N[C@@H](CCCCN)C(N)=O)NC(=O)[C@H](C)NC(=O)[C@H](CC(C)C)NC(=O)[C@H](Cc2ccc(O)cc2)NC1=O)[C@@H](C)O)[C@@H](C)O)C(C)C [SEQ ID NO:62, Ac-[Ala^8,Lys^12,Ala^16,17,19,Ala^24,Asp^25,Leu^26,Lys^27,28]-VIP cyclo (Lys^21 →Asp^25)] (Ac-HSDAVFTANYTKLRKAAAAKKYLADLKK-NH2; lactam 21-25) | 0.24 μg
7 | 0.19 nM | CCCC[C@H](NC(=O)[C@H](CCC(N)=O)NC(=O)[C@H](CCCCN)NC(=O)[C@H](CCCNC(=N)N)NC(=O)[C@H](CC(C)C)NC(=O)[C@H](CCCCN)NC(=O)[C@@H](NC(=O)[C@H](Cc1ccc(O)cc1)NC(=O)[C@H](CC(N)=O)NC(=O)[C@H](CCC(=O)O)NC(=O)[C@@H](NC(=O)[C@H](Cc1ccccc1)NC(=O)[C@@H](NC(=O)[C@H](C)NC(=O)[C@H](CC(=O)O)NC(=O)[C@H](C)NC(=O)[C@H](Cc1c[nH]cn1)NC(C)=O)C(C)C)[C@@H](C)O)[C@@H](C)O)C(=O)N[C@@H](C)C(=O)N[C@H](C(=O)N[C@@H](CCCCN)C(=O)N[C@H]1CCCCNC(=O)C[C@@H](C(=O)N[C@@H](CC(C)C)C(=O)N[C@@H](CCCCN)C(=O)N[C@@H](CCCCN)C(=O)NCC(=O)NCC(=O)N[C@H](C(N)=O)[C@@H](C)O)NC(=O)[C@H](CC(N)=O)NC(=O)[C@H](CC(C)C)NC(=O)[C@H](Cc2ccc(O)cc2)NC1=O)C(C)C [SEQ ID NO:67, Ac-[Ala^2,Glu^8,Lys^12,Nle^17,Asp^25,Leu^26,Lys^27,28,Gly^29,30,Thr^31]-VIP cyclo (Lys^21 →Asp^25)] (Ac-HADAVFTENYTKLRKQ[Nle]AVKKYLNDLKKGGT-NH2; lactam 21-25) | 0.077 μg

Row | Structure (SMILES) | EC50 [1] | Bronchodilator activity of VIP analogs in guinea pigs, ED50 [2]
8 | CCCC[C@H](NC(=O)[C@H](CCC(N)=O)NC(=O)[C@H](CCCCN)NC(=O)[C@H](CCCNC(=N)N)NC(=O)[C@H](CC(C)C)NC(=O)[C@H](CCCCN)NC(=O)[C@@H](NC(=O)[C@H](Cc1ccc(O)cc1)NC(=O)[C@H](CC(N)=O)NC(=O)[C@H](CCC(=O)O)NC(=O)[C@@H](NC(=O)[C@H](Cc1ccc(F)cc1)NC(=O)[C@@H](NC(=O)[C@H](C)NC(=O)[C@H](CC(=O)O)NC(=O)[C@H](CO)NC(=O)[C@H](Cc1c[nH]cn1)NC(C)=O)C(C)C)[C@@H](C)O)[C@@H](C)O)C(=O)N[C@@H](C)C(=O)N[C@H](C(=O)N[C@@H](CCCCN)C(=O)N[C@H]1CCCCNC(=O)C[C@@H](C(=O)N[C@H](C(=O)N[C@@H](CC(C)C)C(=O)N[C@H](C(=O)NCC(=O)NCC(=O)N[C@H](C(N)=O)[C@@H](C)O)[C@@H](C)O)C(C)C)NC(=O)[C@H](CC(N)=O)NC(=O)[C@H](CC(C)C)NC(=O)[C@H](Cc2ccc(O)cc2)NC1=O)C(C)C [SEQ ID NO:66, Ac-[p-F-Phe^6,Glu^8,Lys^12,Nle^17,Asp^25,Val^26,Thr^28,Gly^29,30,Thr^31]-VIP cyclo (Lys^21 →Asp^25)] (Ac-HSDAV[Phe(4-F)]TENYTKLRKQ[Nle]AVKKYLNDVLTGGT-NH2; lactam 21-25) | 0.57 nM | 0.12 μg
